Reference: BindingDB's records for doi:10.1016/j.bmcl.2011.09.133 (Genzyme, 2011)

assay: Antagonist activity against human CCR5 assessed as inhibition of HIV1 gp120-induced cell-cell fusion between human HeLa P4/R5 cells and CHO-tat10 cells expressing HIV-1JRFL viral envolop protein after 20 hrs by beta-galactosidase reporter gene assay

| Structure (SMILES) | IC50 [nM] |
| --- | --- |
| Cc1ccncc1CN(c1ccc(N2CCOCC2)cc1)C1CCN([C@H](C)CCNC(=O)c2c(C)cc(Cl)nc2C)CC1 | 1590 |
| COc1ccc(N(Cc2cccc(C#N)n2)C2CCN([C@H](C)CCNC(=O)c3c(C)cc(C#N)nc3C)CC2)cc1 | 0.3 |
| Cc1ccncc1CN(c1ccccc1)C1CCN([C@H](C)CCNC(=O)c2c(C)cc(C#N)nc2C)CC1 | 7 |
| Cc1ccncc1CN(c1ccc(OCC(N)=O)cc1)C1CCN([C@H](C)CCNC(=O)c2c(C)cc(C#N)nc2C)CC1 | 0.98 |
| Cc1ccncc1CN(c1ccc([S+](C)[O-])cc1)C1CCN([C@H](C)CCNC(=O)c2c(C)ncnc2C)CC1 (stereo partly specified) | 130 |
| COCCOc1ccc(N(Cc2cnccc2C)C2CCN([C@H](C)CCNC(=O)c3c(C)cc(F)nc3C)CC2)cc1 | 1.3 |
| COCCOc1ccc(N(Cc2cnccc2C)C2CCN([C@H](C)CCNC(=O)c3c(C)cc(C#N)nc3C)CC2)cc1 | 0.8 |
| CC(CCNC(=O)c1c(Cl)cncc1Cl)N1CCC(N(Cc2cccc(C#N)c2)c2ccc(OC(F)(F)F)cc2)CC1 (stereo unspecified) | 3 |
| COc1ccc(N(Cc2cccc(C#N)c2)C2CCN(C(C)CCNC(=O)c3c(Cl)cncc3Cl)CC2)cc1 (stereo unspecified) | 2 |
| CC(CCNC(=O)c1c(Cl)cncc1Cl)N1CCC(N(Cc2cccc(C#N)c2)c2ccc(C(F)(F)F)cc2)CC1 (stereo unspecified) | 3 |
| CC(CCNC(=O)c1c(Cl)cncc1Cl)N1CCC(N(Cc2cccc(C#N)c2)c2ccc(Br)cc2)CC1 (stereo unspecified) | 8 |
| COc1cccc(CN(c2ccc(Br)cc2)C2CCN(C(C)CCNC(=O)c3c(Cl)cncc3Cl)CC2)c1 (stereo unspecified) | 387 |
| CC(CCNC(=O)c1c(Cl)cncc1Cl)N1CCC(N(Cc2cccc(Cl)c2)c2ccc(Br)cc2)CC1 (stereo unspecified) | 30 |
| CC(CCNC(=O)c1c(Cl)cncc1Cl)N1CCC(N(Cc2ccccc2)c2ccc(Oc3ccc(C(=O)O)cc3)cc2)CC1 (stereo unspecified) | 11 |
| CC(CCNC(=O)c1c(Cl)cncc1Cl)N1CCC(N(Cc2ccccc2)c2ccc(C(=O)N(C)C)cc2)CC1 (stereo unspecified) | 116 |
| COC(=O)c1ccc(N(Cc2ccccc2)C2CCN(C(C)CCNC(=O)c3c(Cl)cncc3Cl)CC2)cc1 (stereo unspecified) | 90 |
| CC(CCNC(=O)c1c(Cl)cncc1Cl)N1CCC(N(Cc2ccccc2)c2ccc(C#N)cc2)CC1 (stereo unspecified) | 19 |
| CC(CCNC(=O)c1c(Cl)cncc1Cl)N1CCC(N(Cc2ccccc2)c2ccc(OC(F)(F)F)cc2)CC1 (stereo unspecified) | 26 |

| Structure (SMILES) | IC50 [nM] |
| --- | --- |
| COc1ccc(N(Cc2ccccc2)C2CCN(C(C)CCNC(=O)c3c(Cl)cncc3Cl)CC2)cc1 (stereo unspecified) | 50 |
| CC(CCNC(=O)c1c(Cl)cncc1Cl)N1CCC(N(Cc2ccccc2)c2ccc(C(F)(F)F)cc2)CC1 (stereo unspecified) | 34 |
| COc1ccc(N(Cc2cccc(C#N)n2)C2CCN([C@H](C)CCNC(=O)c3c(C)cc(Cl)nc3C)CC2)cc1 | 0.3 |
| COc1ccc(N(Cc2cccc(C#N)n2)C2CCN([C@H](C)CCNC(=O)c3c(C)cc(F)nc3C)CC2)cc1 | 0.7 |
| COCCOc1ccc(N(Cc2cnccc2C)C2CCN([C@H](C)CCNC(=O)c3c(C)cc(Cl)nc3C)CC2)cc1 | 0.6 |
| COc1ccc(N(Cc2cnccc2C)C2CCN([C@H](C)CCNC(=O)c3c(C)cc(C(=O)NC(C)C)nc3C)CC2)cc1 | 0.09 |
| COc1ccc(N(Cc2cnccc2C)C2CCN([C@H](C)CCNC(=O)c3c(C)cc(C#N)nc3C)CC2)cc1 | 0.3 |
| COc1ccc(N(Cc2cccnc2)C2CCN([C@H](C)CCNC(=O)c3c(C)cc(F)nc3C)CC2)cc1 | 1.6 |
| COc1ccc(N(Cc2cnccc2C)C2CCN([C@@H](C)CCNC(=O)c3c(C)cc(Cl)nc3C)CC2)cc1 | 40 |
| COc1ccc(N(Cc2cnccc2C)C2CCN([C@H](C)CCNC(=O)c3c(C)cc(F)nc3C)CC2)cc1 | 0.3 |
| COc1ccc(N(Cc2cccnc2)C2CCN([C@H](C)CCNC(=O)c3c(C)cc(Cl)nc3C)CC2)cc1 | 1.5 |
| COc1ccc(N(Cc2cnccc2C)C2CCN([C@H](C)CCNC(=O)c3c(C)cc(Cl)nc3C)CC2)cc1 | 0.2 |
| COc1ccc(N(Cc2cnccc2C)C2CCN([C@H](C)CCNC(=O)c3cnc(Cl)cc3C)CC2)cc1 | 12.3 |
| COc1ccc(N(Cc2cnccc2C)C2CCN([C@H](C)CCNC(=O)c3c(C)ccnc3Cl)CC2)cc1 | 0.7 |
| COc1ccc(N(Cc2cnccc2C)C2CCN([C@H](C)CCNC(=O)c3c(C)ccnc3C)CC2)cc1 | 2.4 |
| COc1ccc(N(Cc2cnccc2C)C2CCN([C@H](C)CCNC(=O)c3c(C)cncc3C)CC2)cc1 | 7 |
| CC(CCNC(=O)c1c(Cl)cncc1Cl)N1CCC(N(Cc2cccc(C#N)c2)c2ccc(C#N)cc2)CC1 (stereo unspecified) | 12 |
| CC(CCNC(=O)c1c(Cl)cncc1Cl)N1CCC(N(Cc2ccccc2)c2ccc(Br)cc2)CC1 (stereo unspecified) [N-(3-(4-(benzyl(4-bromophenyl)amino)piperidin-1-yl)butyl)-3,5-dichloroisonicotinamide] | 49 |
